Data taken from US20210292347A1, “DIHETEROCYCLIC TRIAZINONE NUCLEOSIDE ANALOGS AND THEIR USE FOR MEDICATION” (priority 2020, published 2021).
Values after ≈ are worked out from the molar mass of the structure shown. “Also recorded” adds a separate entry of the source. Like-named read-outs stand apart in the source and are kept apart here.

Columns and labels:
[1] = test system: Human pancreatic cancer cell line Panc-1; test: cells; assay type: cell-based; details: for IC50: Homo sapiens, read-out: IC50 and 95% confidence limit, anti-proliferative effect on Panc-1
Method: (§1) Cell lines: Human pancreatic cancer cell line Panc-1, human colorectal cancer cell line HT29, human lung cancer cell line NCI-H460 and human breast cancer cell line MCF7; the medium: s DMEM (Gibco BRL), containing 10% fetal calf serum (Gibco BRL) and 2 mM L-glutamine (Gibco BRL).
(§2) Test samples: example compounds 7, 15, 82, 89, 116 and 135. The samples were dissolved in dimethyl sulfoxide (DMSO, Sigma, United States) and medium was added to the final concentration of 0.5%. Cyclophosphamide ware as positive control (Aldrich, United States, purity>96%).
(§3) General Method: cells were digested with trypsin and dispersed into single cells in the medium containing penicillin (25 U/ml) and streptomycin (25 μg/mL). The cells were seeded in 96-well culture plates (Corning Incorporated), at 37° C., with 5% CO2 present for 24 hours. The culture medium was removed, […] test compounds were added, cultured for 48 hours. Culture medium was removed and […] (MTT, USA Sigma products) was added. The result was assayed by SK601-based microplate reader (Japan Seikagaku company's products), 570 nm/630 nm optical density (OD). Cell viability determined by the formula: (Experimental group OD/control OD)×100%; CTX and the positive control subjects treated in the same material simultaneously.

[2] = test system: human breast cancer cell line MCF7; test: cells; assay type: cell-based
Method: as §1, §2, §3

[3] = test system: human colorectal cancer cell line HT29; test: cells; assay type: cell-based; details: for IC50: Homo sapiens; for anti-proliferative effect on HT29 (in words): colorectal cancer
Method: as §1, §2, §3

[4] = test system: human lung cancer cell line NCI-H460; test: cells; assay type: cell-based; details: for IC50: Homo sapiens
Method: as §1, §2, §3

[5] = test system: mice sarcoma S180; test: Growth inhibition of S180 sarcoma in mice; assay type: in vivo, Kunming healthy mice; details: for in-vivo anti-tumor efficacy, statistical significance (in words): S180 sarcoma in mice, doses and routes of Table 3

SMILES	IC50 ([1]; PANC-1, MTT, 48 hours) [µg/mL]	IC50 ([2]; MCF7, MTT, 48 hours, unit inferred, read-out: IC50 with 95% confidence limits, MCF7 cells) [µM]	IC50 ([2]; MCF7, MTT, cultured for 48 hours, value (95% confidence limit), Table 2, read-out: IC50 Breast cancer MCF7) [µM]	IC50 ([3]; HT-29, MTT, 48 hours, read-out: IC50 and 95% confidence limit, anti-proliferative effect on HT29) [µg/mL]	IC50 ([3]; HT-29, MTT, cultured for 48 hours, value (95% confidence limit), Table 2, read-out: IC50 Colorectal cancer HT-29) [µM]	anti-proliferative effect on HT29 (in words) [3]	IC50 ([4]; NCI-H460, MTT, 48 hours, unit inferred, read-out: IC50 and 95% confidence limits, NCI-H460 cells) [µM]	IC50 ([4]; NCI-H460, MTT, cultured for 48 hours, value (95% confidence limit), Table 2, read-out: IC50 Lung cancer NCI-H460) [µM]	inhibition in vivo at 25 mg/kg ([5]; Mus musculus, S-180, mice, iv, 25 mg/kg, read-out: Inhibition rate (%) S180 sarcoma) [%]	in-vivo anti-tumor efficacy, statistical significance (in words) [5]	IC50 ([1]; PANC-1, 48 h) [µg/mL]	anti-proliferative effect on Panc-1 (in words) ([1]; pancreatic cancer)	IC50 ([2]; MCF7, 48 h, read-out: IC50 Breast cancer MCF7) [µM]	IC50 ([2]; MCF7, 48 h, read-out: IC50 with 95% confidence limits, MCF7 cells) [µM]	IC50 ([3]; HT-29, 48 h, read-out: IC50 Colorectal cancer HT-29) [µM]	IC50 ([3]; HT-29, 48 h, read-out: IC50 and 95% confidence limit, anti-proliferative effect on HT29) [µg/mL]	IC50 ([4]; NCI-H460, 48 h, read-out: IC50 Lung cancer NCI-H460) [µM]	IC50 ([4]; NCI-H460, 48 h, read-out: IC50 and 95% confidence limits, NCI-H460 cells) [µM]	inhibitory effect on NCI-H460 cells (in words) ([4]; lung cancer)	inhibition in vivo at 50 mg/kg ([5]; Mus musculus, S-180, mice, iv, 50 mg/kg, read-out: Inhibition rate (%) S180 sarcoma) [%]
CCCc1nn(C)c2c(=O)n(C3OC(COP(=O)(O)OP(=O)(O)OP(=O)(O)O)C(O)C3O)nnc12 (stereo not shown) [Example 135, (3,4-dihydroxy-5-(5-methyl-4-oxo-7-propyl-4,5-dihydro-3H-pyrazolo[4,3-d][1,2,3]triazin-3-yl)tetrahydrofuran-2-yl)methyl tetrahydrogen triphosphate]	53.5	5.7	5.7	18	18	relatively weak	14	14	< 40	statistically significant	–	–	–	–	–	–	–	–	–	–
CCOC(=O)c1nn(O)c2c(=O)n(C3OC(COC(C(=O)O)P(NC(C)C)OCC#N)C(O)C3O)nnc12 (stereo not shown) [Example 116, 2-((cyanomethoxy)(isopropylamino)phosphino)-2-((5-(7-(ethoxycarbonyl)-5-hydroxy-4-oxo-4,5-dihydro-3H-pyrazolo[4,3-d][1,2,3]triazin-3-yl)-3,4-dihydroxytetrahydrofuran-2-yl)methoxy)acetic acid]	–	–	–	–	–	the strongest; also recorded: higher inhibition activity	–	–	–	statistically significant	2.19 (≈ 3.91 µM)	a strong anti-proliferative effect, better than CTX; also recorded: higher inhibition activity	12.9	12.9	2.68	2.68	4.62	4.62	more sensitive to NCI-H460 cells	< 40
